Reference: ChEMBL document CHEMBL1151208, “Cytotoxic flavonoids and alpha-pyrones from Cryptocarya obovata” (J Nat Prod, 2004)
Activity calls are given as the source filed them. No cut-off for these calls is given here.

System: KB
Assay: Cytotoxicity against human KB cells
Format: functional, cell-based

Compound | Activity | IC50 [µM]
CCOC(=O)CCC[C@@H]1C[C@H]2C[C@](/C=C/c3ccccc3)(Oc3cc4c(c(O)c32)C(=O)C[C@H](c2ccccc2)O4)O1 | inactive | –
CCOC(=O)CCC[C@@H]1C[C@H]2C[C@](/C=C/c3ccccc3)(Oc3cc4c(c(O)c32)C(=O)C[C@@H](c2ccccc2)O4)O1 | inactive | –
O=C1C=CC[C@H](C[C@@H]2C[C@H]3C[C@](/C=C/c4ccccc4)(Oc4c(C(=O)/C=C/c5ccccc5)c(O)cc(O)c43)O2)O1 [OBOCHALCOLACTONE] | – | 5
O=C1C=C(/C=C/c2ccccc2)O[C@H](C[C@H]2CC=CC(=O)O2)C1 [OBOLACTONE] | – | 3
